Active and inactive are the calls of the source. No cut-off for these calls is given here.
How the values were obtained:
[1] = tested on: A498; experiment: Growth inhibition of human A498 cells after 48 hrs by SRB staining method; format: functional; details: A498, 48 h
[2] = tested on: MDA-MB-231; experiment: Growth inhibition of human MDA-MB-231 cells after 48 hrs by SRB staining method; format: functional; details: MDA-MB-231, 48 h
[3] = tested on: IGROV-1; experiment: Growth inhibition of human IGROV1 cells after 48 hrs by SRB staining method; format: functional; details: IGROV-1, 48 h
[4] = target: T1, Dihydrofolate reductase (Homo sapiens) (UniProt P00374); experiment: Inhibition of human dihydrofolate reductase at 10 uM
T1 sequence (whole entry): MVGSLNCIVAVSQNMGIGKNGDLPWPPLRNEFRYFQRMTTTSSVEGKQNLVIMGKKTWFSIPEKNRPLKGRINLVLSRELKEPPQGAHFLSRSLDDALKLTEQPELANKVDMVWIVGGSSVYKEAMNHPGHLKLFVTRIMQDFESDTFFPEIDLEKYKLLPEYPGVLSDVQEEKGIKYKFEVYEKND

[5] = tested on: SNB-19; experiment: Growth inhibition of human SNB19 cells after 48 hrs by SRB staining method; format: functional; details: SNB-19, 48 h
[6] = target: T2, Thymidylate synthase (Lactobacillus casei, UniProt P00469)
T2 sequence (P00469 whole entry): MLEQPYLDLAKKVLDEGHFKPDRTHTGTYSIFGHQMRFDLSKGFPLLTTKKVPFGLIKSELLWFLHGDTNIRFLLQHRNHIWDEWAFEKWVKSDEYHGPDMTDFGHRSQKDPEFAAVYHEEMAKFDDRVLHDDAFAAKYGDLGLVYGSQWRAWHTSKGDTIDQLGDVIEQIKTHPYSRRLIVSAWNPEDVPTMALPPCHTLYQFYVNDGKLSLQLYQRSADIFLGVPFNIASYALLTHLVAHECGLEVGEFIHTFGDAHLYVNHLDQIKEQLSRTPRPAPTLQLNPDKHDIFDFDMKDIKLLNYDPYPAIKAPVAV
Description: Inhibition of Lactobacillus casei thymidylate synthase

[7] = tested on: RPMI-8226; experiment: Growth inhibition of human RPMI8226 cells after 48 hrs by SRB staining method; format: functional; details: RPMI-8226, 48 h
[8] = tested on: SK-MEL-2; experiment: Growth inhibition of human SK-MEL-2 cells after 48 hrs by SRB staining method; format: functional; details: SK-MEL-2, 48 h
[9] = tested on: T47D; experiment: Growth inhibition of human T47D cells after 48 hrs by SRB staining method; format: functional
[10] = tested on: ACHN; experiment: Growth inhibition of human ACHN cells after 48 hrs by SRB staining method; format: functional
[11] = tested on: BT-549; experiment: Growth inhibition of human BT549 cells after 48 hrs by SRB staining method; format: functional; details: BT-549, 48 h
[12] = tested on: HCC 2998; experiment: Growth inhibition of human HCC2998 cells after 48 hrs by SRB staining method; format: functional; details: HCC 2998, 48 h
[13] = tested on: SW-620; experiment: Growth inhibition of human SW620 cells after 48 hrs by SRB staining method; format: functional; details: SW-620, 48 h
[14] = tested on: UO-31; experiment: Growth inhibition of human UO31 cells after 48 hrs by SRB staining method; format: functional; details: UO-31, 48 h
[15] = tested on: K562; experiment: Growth inhibition of human K562 cells after 48 hrs by SRB staining method; format: functional; details: K562, 48 h
[16] = Growth inhibition of human HS 578T cells after 48 hrs by SRB staining method; format: functional
[17] = tested on: PC-3; experiment: Growth inhibition of human PC3 cells after 48 hrs by SRB staining method; format: functional; details: PC-3, 48 h
[18] = tested on: Malme-3M; experiment: Growth inhibition of human MALME-3M cells after 48 hrs by SRB staining method; format: functional
[19] = tested on: A549; experiment: Growth inhibition of human A549 cells after 48 hrs by SRB staining method; format: functional; details: A549, 48 h
[20] = tested on: HT-29; experiment: Growth inhibition of human HT29 cells after 48 hrs by SRB staining method; format: functional; details: HT-29, 48 h
[21] = tested on: MOLT-4; experiment: Growth inhibition of human MOLT4 cells after 48 hrs by SRB staining method; format: functional; details: MOLT-4, 48 h
[22] = tested on: CAKI-1; experiment: Growth inhibition of human CAKI1 cells after 48 hrs by SRB staining method; format: functional; details: CAKI-1, 48 h
[23] = tested on: SK-MEL-28; experiment: Growth inhibition of human SK-MEL-28 cells after 48 hrs by SRB staining method; format: functional; details: SK-MEL-28, 48 h
[24] = tested on: COLO 205; experiment: Growth inhibition of human COLO205 cells after 48 hrs by SRB staining method; format: functional; details: COLO 205, 48 h
[25] = read-out: pLC50 (the source's name) (converted)

Work on `COc1ccc(Nc2nc3cc(N)cc(N)c3nc2-c2ccccc2)cc1OC` yielded a GI50 [1] of 11.7 µM, a CC50 [1, 25] of over 100 µM and a TGI ([1]; read-out: pTGI (converted)) of 56.2 µM. It also gave a GI50 [2] of 4.9 µM, a CC50 [2, 25] of 46.8 µM and a TGI ([2]; read-out: pTGI (converted)) of 18.6 µM. For the same compound, the GI50 [3] was 24.5 µM, the LC50 [3] was over 100 µM and the TGI ([3]; read-out: pTGI (converted)) was over 100 µM. The Activity [4] was “inactive”, the GI50 [5] was 35.5 µM and the LC50 [5] was over 100 µM. It also gave a TGI ([5]; read-out: pTGI (converted)) of over 100 µM, a Ki [6] of 6 µM and a GI50 [7] of 7.94 µM. It also gave a CC50 [7, 25] of 87.1 µM, a TGI ([7]; read-out: pTGI (converted)) of 28.2 µM and a GI50 [8] of 26.9 µM. It also gave an LC50 [8] of over 100 µM, a TGI ([8]; read-out: pTGI (converted)) of over 100 µM and a GI50 [9] of 14.5 µM. The CC50 [9, 25] was over 100 µM, the TGI ([9]; read-out: pTGI (converted)) was 38 µM and the GI50 [10] was 27.5 µM. For the same compound, the CC50 [10, 25] was over 100 µM, the TGI ([10]; read-out: pTGI (converted)) was over 100 µM and the GI50 [11] was 25.7 µM. The CC50 [11, 25] was over 100 µM, the TGI ([11]; read-out: pTGI (converted)) was 81.3 µM and the GI50 [12] was 18.2 µM. It also gave an LC50 [12] of 85.1 µM, a TGI ([12]; read-out: pTGI (converted)) of 39.8 µM and a GI50 [13] of 15.5 µM. The CC50 [13, 25] was 83.2 µM, the TGI ([13]; read-out: pTGI (converted)) was 36.3 µM and the GI50 [14] was 28.2 µM. For the same compound, the CC50 [14, 25] was over 100 µM, the TGI ([14]; read-out: pTGI (converted)) was over 100 µM and the GI50 [15] was 20.4 µM. It also gave a CC50 [15, 25] of over 100 µM, a TGI ([15]; read-out: pTGI (converted)) of 70.8 µM and a GI50 [16] of 18.6 µM. For the same compound, the CC50 [16, 25] was over 100 µM, the TGI ([16]; read-out: pTGI (converted)) was 50.1 µM and the GI50 [17] was 14.1 µM. The CC50 [17, 25] was 93.3 µM, the TGI ([17]; read-out: pTGI (converted)) was 36.3 µM and the GI50 [18] was 15.8 µM. For the same compound, the LC50 [18] was 81.3 µM, the TGI ([18]; read-out: pTGI (converted)) was 35.5 µM and the GI50 [19] was 35.5 µM. It also gave a CC50 [19, 25] of over 100 µM, a TGI ([19]; read-out: pTGI (converted)) of over 100 µM and a GI50 [20] of 25.1 µM. It also gave an LC50 [20] of over 100 µM, a TGI ([20]; read-out: pTGI (converted)) of 52.5 µM and a GI50 [21] of 6.92 µM. It also gave a CC50 [21, 25] of over 100 µM, a TGI ([21]; read-out: pTGI (converted)) of over 100 µM and a GI50 [22] of 18.2 µM. It also gave a CC50 [22, 25] of over 100 µM, a TGI ([22]; read-out: pTGI (converted)) of 66.1 µM and a GI50 [23] of 21.4 µM. It also gave a CC50 [23, 25] of over 100 µM, a TGI ([23]; read-out: pTGI (converted)) of 50.1 µM and a GI50 [24] of 20 µM. It also gave an LC50 [24] of 85.1 µM and a TGI ([24]; read-out: pTGI (converted)) of 40.7 µM.
